Measurements reported in patent publication US9458201B2, “Melanocortin receptor-specific heptapeptides” (Palatin Technologies, Inc., priority 2009, dated 2016).
Peptide text beside a SMILES is read from it.

Columns and labels:
hMC4-R [1] = target: T1, hMC4-R (Homo sapiens (Human), UniProt P32245); experiment: Assay for agonist activity (cAMP accumulation, HEK-293 cells expressing hMC4-R); details: agonist = intrinsic activity 70% or higher; partial agonist 10-70%
Description: By “intrinsic activity” is meant the maximal functional activity achievable by a compound in a specified melanocortin receptor expressing cell system, such as the maximal stimulation of adenylyl cyclase.
Accumulation of intracellular cAMP was examined as a measure of the ability of the peptides of the present invention to elicit a functional response in HEK-293 cells that express MC4-R. Confluent HEK-293 cells that express recombinant hMC4-R were detached from culture plates by incubation in enzyme-free cell dissociation buffer. Dispersed cells were suspended in Earle's Balanced Salt Solution containing 10 mM HEPES (pH 7.5), 1 mM MgCl2, 1 mM glutamine, 0.5% albumin and 0.3 mM 3-isobutyl-1-methyl-xanthine (IBMX), a phosphodiesterase inhibitor. […] Cells were exposed for 15 minutes at 37° C. to peptides of the present invention dissolved in DMSO (final DMSO concentration of 1%) at a concentration range of 0.05-5000 nM in a total assay volume of 200 μL. […] Data analysis was performed by nonlinear regression analysis with Graph-Pad Prism® software. The maximum efficacies of the test peptides of the present invention were compared to that achieved by the reference melanocortin agonist NDP-αMSH.

[2] = Induction of penile erection in male rats; assay type: in vivo, rat; details: for induction of penile erection: male Sprague-Dawley rats, 60 minute observation, No. 154 as trifluoracetic acid salt, No. 155 as acetate salt
Text: Each dose group contained six or seven animals, with video observation for sixty minutes following administration.

[3] = Rat feeding study: food intake and body weight change; assay type: in vivo; details: for effect on food intake and rate of change in body weight: rat feeding studies, 0.3 and 1 mg/kg, bremelanotide as positive control; for decrease in food consumption compared to control: rat
Description: Change in food intake and body weight was evaluated for selected peptides administered by intravenous (IV) or subcutaneous injection routes. Male Sprague-Dawley rats were obtained from Hilltop Lab Animals, Inc. (Scottsdale, Pa.) or other vendors. Animals were individually housed in conventional polystyrene hanging cages and maintained on a controlled 12 hour on/off light cycle. Water and pelleted food was provided ad libitum. The rats were dosed IV with vehicle or selected peptides (0.3 to 1.0 mg/kg), or dosed subcutaneously with vehicle or selected peptides (doses up to 30 mg/kg). The changes in body weight and food intake for the 24 hour period after dosing was determined. The changes in body weight and food intake for the 48 hour and 72 hour periods after dosing can also be measured to determine reversal of changes in body weight and food intake effects back to baseline levels.

hMC4-R [4] = target: T1, hMC4-R; experiment: Competitive binding assay using Eu-NDP-α-MSH; details: Eu-NDP-α-MSH (values marked *); averaged; read-out: MC4-R Ki
Description: Alternatively, a competitive inhibition binding assay was performed employing Eu-NDP-α-MSH (PerkinElmer Life Sciences catalog No. AD0225) with determination by time-resolved fluorometry (TRF) of the lanthanide chelate. […] After incubation for 90 minutes at 37° C., the reaction was stopped by filtration over AcroWell 96-well filter plates (Pall Life Sciences). The filter plates were washed 4 times with 200 μL of ice-cold phosphate-buffered saline. DELFIA Enhancement solution (PerkinElmer Life Sciences) was added to each well. […] Each assay was conducted in duplicate and mean values were utilized. Ki values were determined by curve-fitting with Graph-Pad Prism® software using a one-site fixed-slope competition binding model.

hMC4-R [5] = target: T1, hMC4-R; experiment: Competitive inhibition binding assay using [I125]-NDP-α-MSH; details: [I125]-NDP-α-MSH (unmarked values); averaged; read-out: MC4-R Ki
Description: A competitive inhibition binding assay is performed using membrane homogenates prepared from HEK-293 cells that express recombinant hMC4-R, hMC3-R, or hMC5-R, and from B-16 mouse melanoma cells (containing endogenous MC1-R). In some instances, HEK-293 cells that express recombinant hMC1-R were employed. In the examples that follow, all MC3-R, MC4-R and MC5-R values are for human recombinant receptors. […] Membrane homogenates were incubated with 0.2 nM (for hMC4-R) 0.4 nM (for MC3-R and MC5-R) or 0.1 nM (for mouse B16 MC1-R or hMC1-R) [I^125]-NDP-α-MSH (Perkin Elmer) and increasing concentrations of test peptides of the present invention in buffer containing 25 mM HEPES buffer (pH 7.5) with 100 mM NaCl, 2 mM CaCl2, 2 mM MgCl2, 0.3 mM 1,10-phenanthroline, and 0.2% bovine serum albumin. After incubation for 60 minutes at 37° C., the assay mixture was filtered and the membranes washed three times with ice-cold buffer. Filters were dried and counted in a gamma counter for bound radioactivity. […] Maximal specific binding (100%) was defined as the difference in radioactivity (cpm) bound to cell membranes in the absence and presence of 1 μM NDP-α-MSH. […] Each assay was conducted in triplicate and the actual mean values are described, with results less than 0% reported as 0%. Ki values for test peptides of the present invention were determined using Graph-Pad Prism® curve-fitting software.

[6] = 1 mg/kg, 0-2, 0-4 and 0-20 hour periods

T1 sequence (P32245 whole entry): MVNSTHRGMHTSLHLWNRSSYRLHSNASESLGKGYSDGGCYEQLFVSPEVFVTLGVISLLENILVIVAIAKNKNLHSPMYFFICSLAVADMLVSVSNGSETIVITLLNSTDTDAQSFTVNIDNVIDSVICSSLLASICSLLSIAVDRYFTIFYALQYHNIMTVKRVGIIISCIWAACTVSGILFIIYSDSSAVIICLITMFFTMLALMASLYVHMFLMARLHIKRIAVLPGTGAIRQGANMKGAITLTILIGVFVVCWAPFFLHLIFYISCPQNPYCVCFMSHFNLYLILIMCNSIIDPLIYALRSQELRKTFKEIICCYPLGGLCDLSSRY

In the case of CC(=O)N[C@@H](CCCNC(=N)N)C(=O)N[C@H]1CCCC(=O)NCC[C@@H](C(N)=O)NC(=O)[C@H](Cc2c[nH]c3ccccc23)NC(=O)[C@H](CCCNC(=N)N)NC(=O)[C@@H](Cc2ccccc2)NC(=O)[C@H](CCN)NC1=O [compound 127, Ac-Arg-cyclo(hGlu-Dab-D-Phe-Arg-Trp-Dab)-NH], the “functional classification at MC4-R (agonist / partial agonist)” value (hMC4-R [1]) is reported as “agonist”.

With CC(=O)N[C@@H](CCCNC(=N)N)C(=O)N[C@H]1CC(=O)NCCCC[C@@H](C(N)=O)NC(=O)[C@H](Cc2c[nH]c3ccccc23)NC(=O)[C@H](CCCNC(=N)N)NC(=O)[C@@H](Cc2ccccc2)NC(=O)[C@H](CCC(N)=O)NC1=O [Peptide No. 32, Ac-Arg-cyclo(Asp-Gln-D-Phe-Arg-Trp-Lys)-NH2] the “functional classification at MC4-R (agonist / partial agonist)” value (hMC4-R [1]) was “agonist” and the observed spontaneous erections ([2]; rat, subcutaneous, doses of 1, 3 or 10 mg/kg) was “increase in observed spontaneous erections”.

In the case of CC(=O)N[C@@H](CCCNC(=N)N)C(=O)N[C@H]1CC(=O)NCCCC[C@@H](C(N)=O)NC(=O)[C@H](Cc2c[nH]c3ccccc23)NC(=O)[C@H](CCCNC(=N)N)NC(=O)[C@@H](Cc2ccccc2)NC(=O)[C@H](Cc2c[nH]cn2)NC1=O [Peptide No. 1, Ac-Arg-cyclo(Asp-His-D-Phe-Arg-Trp-Lys)-NH2], the “effect on food intake and rate of change in body weight” value [3] is reported as “reduce food intake and decrease the rate of change in body weight”, the “decrease in food consumption compared to control” value (shortened to “decrease in food consumption”) ([3]; 0.3 mg/kg, 0-2, 0-4 and 0-20 hour periods) is reported as “statistically significant” and the “decrease in food consumption” value [3, 6] is reported as “statistically significant”. For the same compound, the “functional classification at MC4-R (agonist / partial agonist)” value (hMC4-R [1]) was “agonist” and the “observed spontaneous erections compared to vehicle” value ([2]; rat, IV, doses of 0.3 or 1 mg/kg) was “statistically significant increase”.

In the case of CC(=O)N[C@H](CCCNC(=N)N)C(=O)N[C@H]1CCCNC(=O)CC[C@@H](C(N)=O)NC(=O)[C@H](Cc2c[nH]c3ccccc23)NC(=O)[C@H](CCCNC(=N)N)NC(=O)[C@@H](Cc2ccccc2)NC(=O)[C@H](Cc2c[nH]cn2)NC1=O [compound 98, Ac-D-Arg-cyclo(Orn-His-D-Phe-Arg-Trp-Glu)-NH2], the Ki (hMC4-R [4]) is reported as 4 nM.

For CC(=O)N[C@@H](CCCNC(=N)N)C(=O)N[C@H]1CCCCNC(=O)C[C@@H](C(N)=O)NC(=O)[C@H](Cc2c[nH]c3ccccc23)NC(=O)[C@H](CCCNC(=N)N)NC(=O)[C@@H](Cc2ccccc2)NC(=O)[C@H](CC(N)=O)NC1=O [compound 155, Ac-Arg-cyclo(Lys-Asn-D-Phe-Arg-Trp-Asp)-NH2] (HELM PEPTIDE1{[ac].R.K.N.[dF].R.W.D.[am]}$PEPTIDE1,PEPTIDE1,3:R3-8:R3$$$V2.0), the “induction of penile erection” value ([2]; subcutaneous) was “robustly induce a penile erection”.

Compound CC(=O)N[C@@H](CCCNC(=N)N)C(=O)N[C@H]1CC(=O)NCCCC[C@@H](C(N)=O)NC(=O)[C@H](Cc2c[nH]c3ccccc23)NC(=O)[C@H](CCCNC(=N)N)NC(=O)[C@@H](Cc2ccccc2)NC(=O)[C@H](CCNC(=O)CN)NC1=O [compound 94, Ac-Arg-cyclo(Asp-Dab(Glycly)-D-Phe-Arg-Trp-Lys)-NH2] has a Ki (hMC4-R [4]) of 110 nM.

In the case of CC(=O)N[C@@H](CCCNC(=N)N)C(=O)N[C@H]1CCNC(=O)CCC[C@@H](C(N)=O)NC(=O)[C@H](Cc2c[nH]c3ccccc23)NC(=O)[C@H](CCCNC(=N)N)NC(=O)[C@@H](Cc2ccccc2)NC(=O)[C@H](Cc2c[nH]cn2)NC1=O [compound 128, Ac-Arg-cyclo(Dab-His-D-Phe-Arg-Trp-hGlu)-NH2], the “functional classification at MC4-R (agonist / partial agonist)” value (hMC4-R [1]) is reported as “agonist”.

For CC(=O)N[C@@H](CCCNC(=N)N)C(=O)N[C@H]1CCCNC(=O)CC[C@@H](C(N)=O)NC(=O)[C@H](Cc2c[nH]c3ccccc23)NC(=O)[C@H](CCCNC(=N)N)NC(=O)[C@@H](Cc2ccccc2)NC(=O)[C@H](CC(N)=O)NC1=O [compound 154, Ac-Arg-cyclo(Orn-Asn-D-Phe-Arg-Trp-Glu)-NH2], the “induction of penile erection” value ([2]; subcutaneous) was “robustly induce a penile erection”.

In the case of CC(=O)N[C@@H](CCCNC(=N)N)C(=O)N[C@H]1CC(=O)NCCCC[C@@H](C(N)=O)NC(=O)[C@H](Cc2c[nH]c3ccccc23)NC(=O)[C@H](CCCNC(=N)N)NC(=O)[C@@H](Cc2ccccc2)NC(=O)[C@H](C(C)C)NC1=O [Peptide No. 16, Ac-Arg-cyclo(Asp-Val-D-Phe-Arg-Trp-Lys)-NH2], the “effect on food intake and rate of change in body weight” value [3] is reported as “reduce food intake and decrease the rate of change in body weight”, the “decrease in food consumption” value ([3]; 0.3 mg/kg, 0-2 and 0-4 hour periods) is reported as “statistically significant” and the “decrease in food consumption” value [3, 6] is reported as “statistically significant”. For the same compound, the “functional classification at MC4-R (agonist / partial agonist)” value (hMC4-R [1]) was “partial agonist”.

In the case of CC(=O)N[C@@H](CCCNC(=N)N)C(=O)N[C@H]1CCNC(=O)CCC[C@@H](C(N)=O)NC(=O)[C@H](Cc2c[nH]c3ccccc23)NC(=O)[C@H](CCCNC(=N)N)NC(=O)[C@@H](Cc2ccccc2)NC(=O)[C@H](CCN)NC1=O [compound 136, Ac-Arg-cyclo(Dab-Dab-D-Phe-Arg-Trp-hGlu)-OH], the Ki (hMC4-R [5]) is reported as 35 nM.

CC(=O)N[C@@H](CCCNC(=N)N)C(=O)N[C@H]1CC(=O)NCCCC[C@@H](C(N)=O)NC(=O)[C@H](Cc2c[nH]c3ccccc23)NC(=O)[C@H](CCCNC(=N)N)NC(=O)[C@@H](Cc2ccccc2)NC(=O)[C@H](CCN)NC1=O [compound 141, Ac-Cit-cyclo(Asp-Dab-D-Phe-Arg-Trp-Lys)-NH2] showed a Ki (hMC4-R [5]) of 9 nM.

In the case of CC(=O)N[C@@H](CCCNC(=N)N)C(=O)N[C@H]1CCCC(=O)NCC[C@@H](C(N)=O)NC(=O)[C@H](Cc2c[nH]c3ccccc23)NC(=O)[C@H](CCCNC(=N)N)NC(=O)[C@@H](Cc2ccccc2)NC(=O)[C@H](Cc2c[nH]cn2)NC1=O [compound 126, Ac-Arg-cyclo(hGlu-His-D-Phe-Arg-Trp-Dab)-NH2], the “functional classification at MC4-R (agonist / partial agonist)” value (hMC4-R [1]) is reported as “agonist”.

With CC(=O)N[C@@H](CCCNC(=N)N)C(=O)N[C@H]1CCNC(=O)CCC[C@@H](C(N)=O)NC(=O)[C@H](Cc2c[nH]c3ccccc23)NC(=O)[C@H](CCCNC(=N)N)NC(=O)[C@@H](Cc2ccccc2)NC(=O)[C@H](CCN)NC1=O [compound 129, Ac-Arg-cyclo(Dab-Dab-D-Phe-Arg-Trp-hGlu)-NH2] the “functional classification at MC4-R (agonist / partial agonist)” value (hMC4-R [1]) was “agonist”.
